# Data published in patent US6124269A, “2-Halo-6-O-substituted ketolide derivatives” (priority 1998, dated 2000).
# Assays:
# Assay type in all cases: cell-based
# [1] = tested on: Candida albicans CCH 442; assay: In vitro agar dilution MIC, organism code TT; conditions: Table 1B, unit assumed
# Procedure, shortened: (§1)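 Agar dilution in Brain Heart Infusion agar, twelve successive compound dilutions; inocula at 1:100 dilution (1:10 for slow-growing strains such as Streptococcus) applied by replicator. Incubation 35-37° C. for 20 to 24 hours; MIC is lowest concentration giving no growth, slight haze or sparse colonies versus growth control.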
# [2] = tested on: Nocardia asteroides ATCC 9970; assay: In vitro agar dilution MIC, organism code VV; conditions: Table 1B, in µg/mL (unit assumed)
# Procedure, shortened: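 BHI agar dilution, twelve plates; inoculum 1:100, 1:10 for Streptococcus/Micrococcus; Steers replicator; 35-37° C, 20-24 h. Endpoint: no growth/slight haze/sparse colonies vs. no-drug control. Erythromycin A reference plate.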
# [3] = tested on: Streptococcus pneumoniae 5979; assay: In vitro agar dilution MIC, organism code ZZ; conditions: Table 1B, unit assumed
# Procedure, shortened: as §1
# [4] = tested on: Staphylococcus epidermidis 3519; assay: In vitro agar dilution MIC, organism code HH; conditions: Table 1B, in µg/mL (unit assumed)
# Procedure, shortened: as §1
# [5] = tested on: Staphylococcus aureus A-5278; assay: In vitro agar dilution MIC, organism code CC; conditions: Table 1B, unit assumed
# Procedure, shortened: as §1
# [6] = tested on: Escherichia coli JUHL; assay: In vitro agar dilution MIC, organism code QQ; conditions: Table 1B, in µg/mL (unit assumed)
# Procedure, shortened: as §1
# [7] = tested on: Staphylococcus aureus CMX 553; assay: In vitro agar dilution MIC, organism code FF; conditions: Table 1B, unit assumed
# Procedure, shortened: as §1
# [8] = tested on: Mycobacterium smegmatis ATCC 114; assay: In vitro agar dilution MIC, organism code UU; conditions: Table 1B, in µg/mL (unit assumed)
# Procedure, shortened: as §1
# [9] = tested on: Micrococcus luteus ATCC 9341; assay: In vitro agar dilution MIC, organism code OO; conditions: Table 1B, unit assumed
# Procedure, shortened: as §1
# [10] = tested on: Streptococcus pneumoniae ATCC 6303; assay: In vitro agar dilution MIC, organism code XX; conditions: Table 1B, unit assumed
# Procedure, shortened: as §1
# [11] = tested on: Staphylococcus aureus NCTC10649M; assay: In vitro agar dilution MIC, organism code EE; conditions: Table 1B, unit assumed
# Procedure, shortened: as §1
# [12] = tested on: Enterococcus faecium ATCC 8043; assay: In vitro agar dilution MIC, organism code II; conditions: Table 1B, unit assumed
# Procedure, shortened: as §1
# [13] = tested on: Streptococcus bovis A-5169; assay: In vitro agar dilution MIC, organism code JJ; conditions: Table 1B, unit assumed
# Procedure, shortened: as §1
# [14] = tested on: Streptococcus pneumoniae GYR 1171; assay: In vitro agar dilution MIC, organism code YY; conditions: Table 1B, unit assumed
# Procedure, shortened: as §1
# [15] = tested on: Staphylococcus aureus ATCC 6538P; assay: In vitro agar dilution MIC, organism code AA; conditions: Table 1B, unit assumed
# Procedure, shortened: as §1
# [16] = tested on: Streptococcus agalactiae CMX 508; assay: In vitro agar dilution MIC, organism code KK; conditions: Table 1B, unit assumed
# Procedure, shortened: as §1
# [17] = tested on: Staphylococcus aureus A5177; assay: In vitro agar dilution MIC, organism code BB; conditions: Table 1B, in µg/mL (unit assumed)
# Procedure, shortened: as §1
# [18] = tested on: Streptococcus pneumoniae 5649; assay: In vitro agar dilution MIC, organism code ZZA; conditions: Table 1B, unit assumed
# Procedure, shortened: as §1
# [19] = tested on: Micrococcus luteus ATCC 4698; assay: In vitro agar dilution MIC, organism code PP; conditions: Table 1B, in µg/mL (unit assumed)
# Procedure, shortened: as §1
# [20] = tested on: Haemophilis influenzae DILL AMP R; assay: In vitro agar dilution MIC, organism code WW; conditions: Table 1B, unit assumed
# Procedure, shortened: as §1
# [21] = tested on: Staphylococcus aureus 1775; assay: In vitro agar dilution MIC, organism code GG; conditions: Table 1B, unit assumed
# Procedure, shortened: as §1
# [22] = tested on: Streptococcus pyogenes 930; assay: In vitro agar dilution MIC, organism code MM; conditions: Table 1B, unit assumed
# Procedure, shortened: as §1
# [23] = tested on: Streptococcus pyogenes PIU 2548; assay: In vitro agar dilution MIC, organism code NN; conditions: Table 1B, unit assumed
# Procedure, shortened: as §1
# [24] = tested on: Staphylococcus aureus CMX 642A; assay: In vitro agar dilution MIC, organism code DD; conditions: Table 1B, unit assumed
# Procedure, shortened: as §1
# [25] = tested on: Escherichia coli DC-2; assay: In vitro agar dilution MIC, organism code SS; conditions: Table 1B, unit assumed
# Procedure, shortened: as §1
# [26] = tested on: Streptococcus pyogenes EES61; assay: In vitro agar dilution MIC, organism code LL; conditions: Table 1B, unit assumed
# Procedure, shortened: as §1
# [27] = tested on: Escherichia coli SS; assay: In vitro agar dilution MIC, organism code RR; conditions: Table 1B, in µg/mL (unit assumed)
# Procedure, shortened: as §1
Compound,MIC [1] [µg/mL],MIC [2],MIC [3] [µg/mL],MIC [4],MIC [5] [µg/mL],MIC [6],MIC [7] [µg/mL],MIC [8],MIC [9] [µg/mL],MIC [10] [µg/mL],MIC [11] [µg/mL],MIC [12] [µg/mL],MIC [13] [µg/mL],MIC [14] [µg/mL],MIC [15] [µg/mL],MIC [16] [µg/mL],MIC [17],MIC [18] [µg/mL],MIC [19],MIC [20] [µg/mL],also measured
CC[C@H]1OC(=O)[C@@](C)(F)C(=O)[C@H](C)[C@@H](O[C@@H]2O[C@H](C)C[C@H](N(C)C)[C@H]2O)[C@](C)(OC/C=C/c2cnc3ccc(C=NN)cc3c2)C[C@@H](C)C(=O)[C@H](C)[C@H]2NC(=O)O[C@@]21C [Example 19],> 100,0.02,1,0.2,> 100,100,0.2,0.78,0.02,0.06,0.2,0.05,≤ 0.005,0.06,0.1,0.02,0.2,0.5,0.1,2,MIC [21]: > 100 µg/mL; MIC [22]: 1.56 µg/mL; MIC [23]: 0.2 µg/mL; MIC [24]: 0.2 µg/mL; MIC [25]: 100 µg/mL; MIC [26]: 0.02 µg/mL; MIC [27]: 0.78
CC[C@H]1OC(=O)[C@@](C)(F)C(=O)[C@H](C)[C@@H](O[C@@H]2O[C@H](C)C[C@H](N(C)C)[C@H]2O)[C@](C)(OC/C=C/c2cnc3ccc(C=NN=C(C)C)cc3c2)C[C@@H](C)C(=O)[C@H](C)[C@H]2NC(=O)O[C@@]21C [Example 20],> 100,0.02,2,0.2,> 100,> 100,0.1,0.78,0.02,0.125,0.2,0.1,0.01,0.06,0.1,0.02,0.1,1,0.1,4,MIC [21]: > 100 µg/mL; MIC [22]: 1.56 µg/mL; MIC [23]: 0.2 µg/mL; MIC [24]: 0.1 µg/mL; MIC [25]: > 100 µg/mL; MIC [26]: 0.02 µg/mL; MIC [27]: 0.78
CC[C@H]1OC(=O)C(C)(F)C(=O)[C@H](C)[C@@H](O[C@@H]2O[C@H](C)C[C@H](N(C)C)[C@H]2O)[C@](C)(OCC#CC(=O)c2ccccc2)C[C@@H](C)C(=O)[C@H](C)[C@H]2NC(=O)O[C@@]21C (stereo partly drawn) [Example 23],> 100,0.78,> 128,1.56,> 100,> 100,0.78,3.1,0.2,0.03,1.56,0.78,0.1,0.03,1.56,0.39,0.78,2,1.56,8,MIC [21]: > 100 µg/mL; MIC [22]: > 100 µg/mL; MIC [23]: 1.56 µg/mL; MIC [24]: 1.56 µg/mL; MIC [25]: > 100 µg/mL; MIC [26]: 0.39 µg/mL; MIC [27]: 3.1
